This is an account of results in patent US8268786B2, “Anti-cancer tocotrienol analogues and associated methods” (First Tech International Limited, priority 2009, dated 2012).

By IC50 is commonly meant the concentration that inhibits the measured activity by half.

Where two headings read alike, the source gives them in different places.

The test system of test [1] is ER-positive human breast cancer cells MCF7. Put plainly: MTT antiproliferative assay, MCF7 cells. The format is cell-based. To be noted: for potency relative to parent natural tocotrienol / antiproliferative activity (in words): MCF7; for potency relative to parent natural tocotrienol: 4 and 10 versus Compound 1, 8 versus Compound 2. On the procedure: (§1) For each of the assays performed the compounds were dissolved in aqueous culture media by binding the compounds with bovine serum albumin (BSA).
(§2) An amount of each compound appropriate for the desired final compound concentration was placed in a 1.5 mL screw top glass vial and dissolved in 100 μL of 100% ethanol. Once dissolved, this ethanol/compound solution was added to a small volume of sterile 10% BSA in water and incubated overnight at 37° C. […] Ethanol was added to all treatment media such that the final ethanol concentration was the same in all treatment groups within a given experiment and was always less than 0.1%. Although the examples provided have been described in conjunction with specified amounts of ethanol and other compounds it should be understood that the invention is applicable to embodiments not having those limited concentration.
(§3) The cell growth of MCF7 (Example 24) and MDA-MB-231 (Example 25) cell lines was measured using the MTT assay procedures described above and an MTT assay kit (TACS™, Trevogen®, Inc., Gaithersburg, Md.). After passing the cells for 3-4 times, growing cells were incubated in a 96-well plate at a density of 8×10^3 cells per well, and allowed to attach for 24 hours. Complete growth medium was then replaced with 100 μL of RPMI serum free medium (GIBCO-Invitrogen, NY) containing various doses (20, 10, 5, 2 μM) of the tested compound and the culture continued at 37° C. under 5% CO2. After 96 hours, the incubated cells were treated with MTT solution (10 μL/well) at 37° C. for 4 hours. The color reaction was stopped by the addition of solubilization/stop solution (100 μL/well). The cells continued to be incubated at 37° C. to completely dissolve the formazan product. Absorbance of the samples was determined at 570 nm with an ELISA plate reader (BioTek, VT). Absorbance readings were converted to estimated cell numbers based on a standard curve prepared by plating various concentration of cells, as determined by hemocytometer, and measuring the absorbance of those cells at the start of each experiment. The IC50 value of each compound was calculated using nonlinear regression (curve fit) of log concentration versus the number of cells/well implemented using GraphPad Prism 5.0 program. The procedure was identical for both human breast cancer cell lines MCF7 and MDA-MB-231.
(Tetrazolium assays rely on reduction of a dye to a coloured formazan, in cell work by metabolically active cells.)

Test [2] concerns ER-negative human breast cancer cells MDA-MB-231. Description: MTT antiproliferative assay, MDA-MB-231 cells. Type of test: cell-based. To be noted: for antiproliferative activity (in words): MDA-MB-231. On the procedure: as §1, §2, §3
The test system of test [3] is highly metastatic breast cancer cell line MDA-MB-231. Put plainly: BME Cell Invasion Assay (Boyden chamber, calcein-AM). Type of test: cell-based, human. To be noted: MDA-MB-231, 5 μM. Here is the method:
Anti-Invasion Assays were performed to measure the anti-invasive properties of Compounds 1-21 using a 96 well basement membrane extract “BME” Cell Invasion Assay (Cultrex®, Trevogen, Catalog# 3455-096-K) with the highly metastatic breast cancer cell line MDA-MB-231. This assay employs a simplified Boyden Chamber design with a polyethylene terephthalate membrane (8 μm). Detection of cell invasion is quantified using calcein-AM. Cells internalize calcein-AM and intracellular esterases cleave the acetomethylester moiety to generate free calcein. Free calcein fluoresces brightly, and this fluorescence may be used to quantify the number of cells that have invaded across BME. (See Tamilarasan and Borghesani, referenced above)
About […] of basement membrane extract (BME, 1×) coat was added per well. After overnight incubation at 37° C. in a 5% CO2 incubator, 50,000/50 μL of MDA-MB-231 cells in serum free RPMI medium were added to the top chamber of each well, which contained the tested compound at a treatment concentration of 5 μM. About 150 μL of RPMI medium was added to the lower chamber, which contained 10% fetal bovine serum, penicillin/streptomycin, and fibronectin (1 μL/mL) and N-formyl-met-leu-phe (10 nM) as chemoattractants. Cells were allowed to migrate to the lower chamber at 37° C. in a CO2 incubator. After 24 h, the top and bottom chambers were aspirated and washed with a washing buffer solution. About 100 μL of cell dissociation solution/Calcein-AM solution was added to the bottom chamber and incubated for 1 hour at 37° C. in a CO2 incubator. The cells internalized calcein-AM, and the intracellular esterases cleaved the acetomethylester (AM) moiety to generate free calcein. Fluorescence of the samples was determined at 485 nm excitation; 520 nm emissions were measured using a plate reader (BioTek, VT). The numbers of cells that invaded through the BME coat were calculated using a standard curve.
Differences among the various treatment groups were determined by analysis of variance (ANOVA) followed by Dunnett's t-test. Differences were considered to be statistically significant at a value of <0.05, as compared to vehicle treated controls.

Where [4] appears, read: Homo sapiens, MCF7, 96 h, read-out: MCF7 IC50 μM.
[5] abbreviates: Homo sapiens, MDA-MB-231, 96 h, read-out: MDA-MB-231 IC50 μM.
Where [6] appears, read: 96 hours, serum free medium, calculated by nonlinear regression, read-out: MCF7 IC50.
Where [7] appears, read: 96 hours, serum free medium, calculated by nonlinear regression, read-out: MDA-MB-231 IC50.

As for `CC(C)=CCC/C(C)=C/CC/C(C)=C/CC[C@]1(C)CCc2cc(OC(=O)NCc3ccccc3)cc(C)c2O1` [Compound 18, (R)-2,8-dimethyl-2-((3E,7E) 4,8,12-trimethyltrideca-3,7,11-trienyl)chroman-6-yl benzylcarbamate], the half-maximal inhibitory concentration (IC50) in test [1] (setting [4]) and in test [2] (setting [5]) was over 10 µM throughout.

In the case of `CC(C)=CCC/C(C)=C/CC/C(C)=C/CC[C@]1(C)CCc2cc(OC(=O)Nc3ccccc3)cc(C)c2O1` [Compound 15, (R)-2,8-dimethyl-2-((3E,7E)-4,8,12-trimethyltrideca-3,7,11-trienyl)chroman-6-yl phenylcarbamate], the concentration for half-maximal inhibition (IC50) in test [1] (setting [4]) and in test [2] (setting [5]) was over 10 µM in each case.

As for `CC(C)=CCC/C(C)=C/CC/C(C)=C/CC[C@]1(C)CCc2c(C)c(OC(=O)NS(=O)(=O)c3ccc(Cl)cc3)c(C)c(C)c2O1` [Compound 10, (R)-2,5,7,8-tetramethyl-2-((3E,7E)-4,8,12-trimethyltrideca-3,7,11-trienyl)chroman-6-yl 4-chlorophenylsulfonylcarbamate], the IC50 in test [1] (setting [4]) is 2.4 µM; in test [2] (setting [5]), over 10 µM. Besides, the “potency relative to parent natural tocotrienol” value in test [1] amounted to 8 fold.

Take `CC(C)=CCC/C(C)=C/CC/C(C)=C/CC[C@]1(C)CCc2cc(O)c(C)c(C)c2O1` [Compound 2, γ-tocotrienol, reference compound]: the concentration for half-maximal inhibition (IC50) in test [1] (setting [6]) was 11.4 µM; in test [2] (setting [7]), over 10 µM.

In the case of `CC(C)=CCC/C(C)=C/CC/C(C)=C/CCC1(C)CCc2c(C)c(OC(=O)NS(=O)(=O)c3ccccc3)c(C)c(C)c2O1` (stereo not drawn) [Compound 4, 2,5,7,8-tetramethyl-2-((3E,7E)-4,8,12-trimethyltrideca-3,7,11-trienyl)chroman-6-ylphenylsulfonylcarbamate], the results for the IC50 in test [1] (setting [6]) and in test [2] (setting [7]) were 4.5 µM and over 10 µM, respectively. Also, in test [1], the “potency relative to parent natural tocotrienol” value was 8 fold.

Regarding `CC(C)=CCC/C(C)=C/CC/C(C)=C/CCC1(C)CCc2cc(OC(=O)NS(=O)(=O)c3ccccc3)cc(C)c2O1` (stereo not drawn) [Compound 6, 2,8-dimethyl-2-((3E,7E)-4,8,12-trimethyltrideca-3,7,11-trienyl)chroman-6-ylphenylsulfonylcarbamate], the values for the IC50 in test [1] (setting [6]) and in test [2] (setting [7]) were 6.1 µM and over 10 µM, respectively. Also, the “antiproliferative activity (in words)” value in test [1] is “activities greater than the natural tocotrienols from which they were derived”.

Consider `CC(C)=CCC/C(C)=C/CC/C(C)=C/CC[C@]1(C)CCc2c(C)c(OC(=O)Nc3ccccc3)c(C)c(C)c2O1` [Compound 13, (R)-2,5,7,8-tetramethyl-2-((3E,7E)-4,8,12-trimethyltrideca-3,7,11-trienyl)chroman-6-yl phenylcarbamate], for which the “anti-invasive activity (in words)” value in test [3] is recorded as “more active than their natural tocotrienol parent compounds”. Besides, the values for the half-maximal inhibitory concentration (IC50) in test [1] (setting [4]) and in test [2] (setting [5]) were over 20 µM and over 10 µM, respectively. The “antiproliferative activity (in words)” value in test [2] is listed as “improved activities”.

Take `CC(C)=CCC/C(C)=C/CC/C(C)=C/CC[C@]1(C)CCc2cc(OC(=O)NCc3ccccc3)c(C)c(C)c2O1` [Compound 17, (R)-2,7,8-trimethyl-2-((3E,7E)-4,8,12-trimethyltrideca-3,7,11-trienyl)chroman-6-yl benzylcarbamate]: the “anti-invasive activity (in words)” value in test [3] is on record as “more active than their natural tocotrienol parent compounds”. Also, the IC50 in test [1] (setting [4]) and in test [2] (setting [5]) was over 10 µM each time. The “antiproliferative activity (in words)” value in test [2] is “improved activities”.

Regarding `CC(C)=CCC/C(C)=C/CC/C(C)=C/CC[C@]1(C)CCc2c(C)c(O)c(C)c(C)c2O1` [Compound 1, α-tocotrienol, reference compound], the IC50 in test [1] (setting [6]) is over 20 µM; in test [2] (setting [7]), over 10 µM.

Regarding `CC(C)=CCC/C(C)=C/CC/C(C)=C/CC[C@]1(C)CCc2cc(OC(=O)NC(=O)c3ccccc3)cc(C)c2O1` [Compound 21, (R)-2,8-dimethyl-2-((3E,7E)-4,8,12-trimethyltrideca-3,7,11-trienyl)chroman-6-yl benzoylcarbamate], the IC50 in test [1] (setting [4]) came out at 5.6 µM.

Take `CC(C)=CCC/C(C)=C/CC/C(C)=C/CC[C@]1(C)CCc2c(C)c(OC(=O)NS(=O)(=O)c3ccc(C)cc3)c(C)c(C)c2O1` [Compound 7, (R)-2,5,7,8-tetramethyl-2-((3E,7E)-4,8,12-trimethyltrideca-3,7,11-trienyl)chroman-6-yl tosylcarbamate]: the results for the half-maximal inhibitory concentration (IC50) in test [1] (setting [4]) and in test [2] (setting [5]) were 6.1 µM and over 10 µM, respectively. Also, in test [1], the “antiproliferative activity (in words)” value was “activities greater than the natural tocotrienols from which they were derived”.

Regarding `CC(C)=CCC/C(C)=C/CC/C(C)=C/CCC1(C)CCc2cc(OC(=O)NS(=O)(=O)c3ccccc3)c(C)c(C)c2O1` (stereo not drawn) [Compound 5, 2,7,8-trimethyl-2-((3E,7E)-4,8,12-trimethyltrideca-3,7,11-trienyl)chroman-6-ylphenylsulfonylcarbamate], the IC50 in test [1] (setting [6]) and in test [2] (setting [7]) was over 10 µM each time.

Turning to `CC(C)=CCC/C(C)=C/CC/C(C)=C/CC[C@]1(C)CCc2cc(O)cc(C)c2O1` [Compound 3, δ-tocotrienol, reference compound], the figures for the IC50 in test [1] (setting [6]) and in test [2] (setting [7]) were 15.5 µM and over 10 µM, respectively.

With `CC(C)=CCC/C(C)=C/CC/C(C)=C/CC[C@]1(C)CCc2cc(OC(=O)NC(=O)c3ccccc3)c(C)c(C)c2O1` [Compound 20, (R)-2,7,8-trimethyl-2-((3E,7E)-4,8,12-trimethyltrideca-3,7,11-trienyl)chroman-6-yl benzoylcarbamate], the IC50 in test [1] (setting [4]) was over 10 µM.

On to `CC(C)=CCC/C(C)=C/CC/C(C)=C/CC[C@]1(C)CCc2cc(OC(=O)NS(=O)(=O)c3ccc(Cl)cc3)c(C)c(C)c2O1` [Compound 11, (R)-2,7,8-trimethyl-2-((3E,7E)-4,8,12-trimethyltrideca-3,7,11-trienyl)chroman-6-yl 4-chlorophenylsulfonylcarbamate], for which the half-inhibitory concentration (IC50) in test [1] (setting [4]) and in test [2] (setting [5]) was over 10 µM in each case.

As to `CC(C)=CCC/C(C)=C/CC/C(C)=C/CC[C@]1(C)CCc2cc(OC(=O)Nc3ccccc3)c(C)c(C)c2O1` [Compound 14, (R)-2,7,8-trimethyl-2-((3E,7E)-4,8,12-trimethyltrideca-3,7,11-trienyl)chroman-6-yl phenylcarbamate], the concentration for half-maximal inhibition (IC50) in test [1] (setting [4]) and in test [2] (setting [5]) was over 10 µM each time.

Turning to `CC(C)=CCC/C(C)=C/CC/C(C)=C/CC[C@]1(C)CCc2c(C)c(OC(=O)NC(=O)c3ccccc3)c(C)c(C)c2O1` [Compound 19, (R)-2,5,7,8-tetramethyl-2-((3E,7E)-4,8,12-trimethyltrideca-3,7,11-trienyl)chroman-6-yl benzoylcarbamate], the values for the IC50 in test [1] (setting [4]) and in test [2] (setting [5]) were over 20 µM and over 10 µM, respectively.

Take `CC(C)=CCC/C(C)=C/CC/C(C)=C/CC[C@]1(C)CCc2cc(OC(=O)NS(=O)(=O)c3ccc(Cl)cc3)cc(C)c2O1` [Compound 12, (R)-2,8-dimethyl-2-((3E,7E)-4,8,12-trimethyltrideca-3,7,11-trienyl)chroman-6-yl 4-chlorophenylsulfonylcarbamate]: the half-inhibitory concentration (IC50) in test [1] (setting [4]) and in test [2] (setting [5]) was over 10 µM throughout.
